From paper PMC8467532, “DYRK1A Kinase Inhibitors Promote β-Cell Survival and Insulin Homeostasis” (Cells, 2021)
Where two headings read alike, the source gives them in different places.

Experiments:
[1] = molecular target: T1, DYRK1A (Homo sapiens, UniProt Q13627); experiment: Cook activity assay (ATP regenerative NADH consuming DYRK1A activity assay); format: biochemical; conditions: Cook assay
T1 construct: kinase domain of DYRK1A (126–490) was cloned into pET24a with C-terminal His-tag; His-tag (C); made in house; host or cells: E. coli BL21 (DE3) RIL

[2] = molecular target: T2, DYRK1A kinase domain (Homo sapiens, UniProt Q13627); experiment: MST direct binding assay; conditions: MST direct binding, 20 nM fluorescent-labelled DYRK1A kinase domain
T2 construct: kinase domain of DYRK1A (126–490) was cloned into pET24a with C-terminal His-tag; made in house; host or cells: E. coli BL21 (DE3) RIL

[3] = molecular target: T1, DYRK1A; conditions: cited from earlier work
[4] = system: INS-1E and MIN6 cells; experiment: Ki67 proliferation analysis; format: cell-based, rat, mouse
[5] = system: NFAT; experiment: NFAT luciferase reporter assay in HEK 293 NFAT cell line expressing DYRK1A; format: cell-based; conditions: various concentrations, 30 min, then ionomycin/PMA 5 h
Procedure: The Renilla luciferase reporter assay was performed in HEK 293 NFAT cell line, constitutively expressing DYRK1A, NFAT and Renilla luciferase under the control of an NFAT-RE promoter. The cells were seeded at 10,000 per well in 96-well white plates (Cellstar, Greiner; Burlington, MA, United States). The following day cells were incubated with the indicated concentration of inhibitor for 30 min, then the medium was changed, and cells were stimulated with 1 μM ionomycin and 10 nM PMA for 5 h. Next, the cell lysate was harvested to measure luciferase activity with Renilla-Glo Luciferase Assay System (Promega, Wisconsin, United States). All experiments were carried out in triplicates.

[6] = system: adult human pancreatic beta cells; parameters: method as in PMID 34335466; conditions: cited from earlier work
[7] = system: DYRK1A in MIN6 cell line; experiment: DYRK1A expression by flow cytometry and confocal imaging; format: cell-based, mouse
Procedure: (§1) The presence of insulin, glucagon, C-peptide, Ki67, and DYRK1A was assessed in MIN6 and INS-1E pancreatic cell lines. Before imaging, cells were seeded onto slides at a density of 1 × 10^5 cells and maintained at 37 °C in 95% atmospheric air and 5% CO2 in a humidified atmosphere for 24 h. After washing with fresh medium, cells were incubated with 5 µM inhibitor solution for 24 h. After this time, the solution was replaced with a culture medium for another 48 h. The cells were fixed. Then after washing and permeabilization, they were incubated with specific antibodies diluted in PBS. Next, the cells were incubated for 10 min with Hoechst33342 (Sigma-Aldrich). After incubation, at 37 °C, in the dark, the cells were washed twice with HBSS (Gibco), the slide was transferred to a microscope table, and the cells were visualized under a Zeiss LSM 880 confocal microscope (Carl Zeiss, Jena, Germany) with a 63× immersion objective. Images were analyzed by Zeiss ZEN Software.
(§2) The presence of insulin, glucagon, C-peptide, Ki67 and DYRK1A was assessed in MIN6 and INS-1E pancreatic cell lines. Before analysis, cells were seeded onto slides at a density of 1 × 10^5 cells and maintained at 37 °C in 95% atmospheric air and 5% CO2 in a humidified atmosphere for 24 h. After washing with fresh medium, cells were incubated with 5 µM inhibitor solution for 24 h. After this time, the solution was replaced with a culture medium for another 48 h. The cells were then detached from the plate using trypsin. The cells were fixed. Then after washing and permeabilization, they were incubated with specific antibodies diluted in PBS. Cells were analyzed with BDAccuri flow cytometer and calculated using FlowJo software (Ashland, Oregon-based FlowJo LLC, a subsidiary of Becton Dickinson).

[8] = system: isolated mouse islets; experiment: Insulin secretion assay in isolated mouse islets (ELISA, immunostaining); format: cell-based; parameters: key to insulin secretion (ELISA): ↑: moderate; ↑↑: most potent; conditions: Table 2, Isolated islets
Procedure: (§3) The Insulin ELISA (Ultra Sensitive) was used to quantify insulin levels in control and treated organoids and isolated islets from the mouse pancreas (Crystal Chem, Downers Grove, IL, USA). Islets were homogenized in lysis buffer. Obtained buffer lysates and medium samples (after GSIS) were analyzed for total protein level and subsequently processed following the manufacturer’s protocol.
Mice (male, initially 12 weeks old) were sacrificed by cervical vertebral dislocation. Before starting the incision, their bodies were sprayed with 70% EtOH. A hemostatic clamp was placed on both sides of the small intestine, leaving a small pocket to absorb the collagenase solution into the intestine. Next, 3 mL of cold collagenase solution was introduced into the pancreas through the bile duct. The pancreas was removed from the body and placed in a falcon tube containing 2 mL of collagenase solution. The tube was placed in a water bath at 37 °C. It was incubated for 13 min. At the end of this time, the falcon was shaken vigorously. The collagenase was inactivated with FBS. The sample was centrifuged for 30 s (300× g). This step was repeated 3 times. HBSS was then added to the sample and centrifuged two more times at the same speed as before. After the last centrifugation, HBSS was removed and Percoll (1.045 g/mL) (Sigma-Aldrich) was added. The Percoll solution was left to sediment for 5 min. After this time, the islets were collected from the bottom of the falcon. The step was repeated 3 times. Finally, islets were cultured in RPMI-1640 (Pan Biotech) supplemented with 2 mM L-glutamine (Gibco), 10% fetal bovine serum (FBS) and 1% penicillin/streptomycin and the culture medium was changed daily.
The presence of insulin, C-peptide, glucagon, Pdx-1 and Nkx6.1 was assessed in isolated mouse islets. Islets were fixed in PFA (3.8%) for 30 min, washed with PBS and 0.15% Triton X-100 was added for 1.5 h, then washed again with PBS and samples were transferred to 1% BSA + 0.05% Triton X-100 solution for 3 h. After this time, islets were incubated with primary antibody for 12 h at 4 °C. The secondary antibody was then added for 3 h. Next, the islets were incubated for 10 min with Hoechst33342. After incubation, at 37 °C, in the dark, the samples were washed twice with HBSS, the slide was transferred to a microscope table and the cells were visualized under a Zeiss LSM 880 confocal microscope (Carl Zeiss, Jena, Germany) with a 63× immersion objective. Images were analyzed by Zeiss ZEN Software.

[9] = system: hiPSC-derived pancreatic organoids; experiment: Insulin secretion assay in hiPSC-derived β-cell organoids (ELISA); format: cell-based, human; parameters: key to insulin secretion (ELISA): ↑: moderate; ↑↑: most potent
Procedure: Differentiation of hiPSC into iPSC-derived β-cell islets was carried out following the protocol established by Pellegrini et al. for pluripotent stem cells with slight modifications. A day before differentiation, 800,000 cells were seeded on coated with Geltrex (Gibco) 12 wells plate in Essential 8 medium (Gibco) with Y-27632 10 µM (Abcam). The following culture media were used for differentiation:
M1 medium: MCDB131 (Gibco) + 8 mM D-(þ)-Glucose (Sigma) + 1.23 g/L NaHCO3 (Sigma) + 2% BSA (Sigma) + 0.25 mM Vitamin C (Sigma) + 1% Pen/Strep (Lonza, Basel, Switzerland) + 1% L-glutamine (Lonza);
M2 medium: MCDB131 + 20 mM D-Glucose + 1.754 g/L NaHCO3 + 2% BSA + 0.25 mM Vitamin C + Heparin 10mg/mL (Sigma) + 1% Pen/Strep + 1% L-glutamine. All media were filter-sterilized through a 0.22 µm bottle top filter (Corning, New York, NY, USA). For sequential culture medium changes, small molecules and growth factors were added to the base media immediately before daily exchange. Media switches were as follows: days 0–3: STEMdiff™ Definitive Endoderm Kit ([…], Vancouver, Canada) used following manufacturer instructions; days 4–6: M1 medium + 50 ng/mL KGF (Peprotech, London, UK) + 1:50,000 ITS-X (Invitrogen, Carlsbad, CA, USA); days 7–8: M1 medium + 50 ng/mL KGF + 0.25 µM Sant1 (Sigma) + […] Retinoic acid (RA) (Sigma) + 500 nM PdBU (Millipore, Berlington, MA, United States) + 1:200 ITS-X + 200 nM LDN193189 (only Day 7) (Sigma); days 9–13: M1 medium + 50 ng/mL KGF + 0.25 µM Sant1 + 100 nM RA + 1:200 ITS-X; days 14–18: M2 medium + 0.25 µM Sant1 + 100 nM RA + 1 µM XXI (Millipore) + 10 µM Alk5i II (Selleckchem, Munich, Germany) + 1 µM L-3,30,5-Triiodothyronine (T3) (Sigma) + 20 ng/mL Betacellulin (R&D, Minneapolis, MN, USA) + 1:200 ITS-X.
as §3

[10] = system: INS-1E and MIN6 cells; experiment: MTT cytotoxicity and cell survival assay, β-cell lines; conditions: Table 2, Cell lines
[11] = system: INS-1E cells; experiment: MTT cytotoxicity and cell survival assay, INS-1E; format: cell-based, rat; conditions: 24 h, 0 to 100 μM
[12] = system: INS-1E and MIN6 cells; experiment: GSIS and insulin, C-peptide, glucagon staining (flow cytometry, confocal); format: cell-based, rat, mouse; parameters: key to insulin+ / glucagon+ / C-peptide+: ↑: moderate; ↑↑: most potent
Procedure: Cells were cultured in a low glucose medium (5.5 mM) for 24 h. After this medium was changed to lower glucose medium (2 mM) for 2 h and then for high glucose medium (25 mM) for 30 min, media were harvested and/or cells were used for further analysis.
as §1, §2

[13] = system: mTOR; conditions: cited from earlier work
[14] = DYRK1A 0.5 µM, ATP 128 µM, DYRKtide 1 mM

## NS(=O)(=O)c1ccc(-c2cnc3[nH]cc(-c4cccnc4)c3c2)cc1 [AC12, 4-(3-(pyridin-3-yl)-1H-pyrrolo[2,3-b]pyridin-5-yl)benzenesulfonamide]
[1]; [14]
  Ki: 100 ± 30 nM
[1]; phosphorylation of substrate peptide
  Ki: < 200 nM
[2]
  Kd: 380 ± 60 nM

## COc1ccc(N)cc1-c1cnc(N)c(C(=O)c2cccnc2)n1 [AC22, (3-azanyl-6-(5-azanyl-2-methoxy-phenyl)pyrazin-2-yl)-pyridin-3-yl-methanone]
[3]; DYRK1A, Figure 1, ref Czarna et al. [44]
  IC50: > 6000 nM
[3]; Table S1, Cook assay, data previously reported, ref 1 (Czarna et al. 2018)
  Ki: > 2800 nM
[4]; 5 μM, vs untreated cells
  induction of β-cell proliferation (Ki67 labeling of insulin-labeled cells): most potent in inducing β-cell proliferation
[1]; [14]
  Ki: 1600 ± 400 nM
[2]
  Kd: 2600 ± 400 nM
[5]
  NFAT-controlled luciferase activity: induced NFAT-controlled luciferase activity in a dose-dependent manner

## CN1C(=O)[C@H]2CCC[C@H]2N(C2CCCC2)c2nc(Nc3ccc(C(N)=O)cc3)ncc21 [AC23, 4-(((6aS,9aR)-10-cyclopentyl-5-methyl-6-oxo-5,6,6a,7,8,9,9a,10-octahydrocyclopenta[e]pyrimido[5,4-b][1, 4]diazepin-2-yl)amino)benzamide]
[1]; [14]
  Ki: 1200 ± 400 nM
[2]
  Kd: 12900 ± 2600 nM
[5]
  NFAT-controlled luciferase activity: induced NFAT-controlled luciferase activity in a dose-dependent manner

## C=CC(=O)Nc1ccc(C(=O)c2sc(Nc3ccc(N4CCN(C)CC4)cc3OC)nc2N)cc1 [AC25, N-(4-((4-azanyl-2-((2-methoxy-4-(4-methylpiperazin-1-yl)phenyl)amino)-1,3-thiazol-5-yl)carbonyl)phenyl)propenamide]
[1]; [14]
  Ki: 1000 ± 300 nM
[2]
  Kd: 1100 ± 600 nM
[5]
  NFAT-controlled luciferase activity: did not promote NFAT-activity

## C=CC(=O)Nc1cccc(C(=O)c2sc(Nc3ccc(N4CCN(C)CC4)cc3)nc2N)c1 [AC28]
[1]; [14]
  Ki: 3000 ± 1000 nM
[2]
  Kd: 27000 ± 17000 nM
[5]
  NFAT-controlled luciferase activity: did not promote NFAT-activity

## COc1ccc2c(c1)[nH]c1c(C)nccc12 [Harmine, reference compound]
[6]
  increase in proliferation: 2–4%
[7]; MIN6, 24 h with inhibitor, control 74%
  DYRK1A (fluorescence-positive cells, flow cytometry): 27.7%
[7]; MIN6, vs untreated control
  DYRK1A signal in confocal imaging: reduced
[8]
  insulin secretion (ELISA): ↑
[9]; GSIS, compared with untreated control cells
  insulin release: markedly increased insulin release
[9]; Table 2, hiPSC
  insulin secretion (ELISA): ↑↑
[10]
  toxicity: no
[11]
  effect on viability of INS-1E cells: did not show adverse effects
[12]; GSIS, compound alone
  insulin/C-peptide secretion: enhanced insulin secretion and increases C-peptide levels
[12]; Table 2, Cell lines
  C-peptide+: ↑
  glucagon+: ↑↑
  insulin+: ↑
[5]
  NFAT-controlled luciferase activity: induced NFAT-controlled luciferase activity in a dose-dependent manner

## Cc1cccc(-c2n[nH]cc2-c2ccc3ncccc3n2)n1 [RepSox, 2-(3-(6-Methyl-2-pyridinyl)-1H-pyrazol-4-yl)-1,5-naphthyridine, reference compound]
[4]; TGF-β inhibitor alone
  effect on cell proliferation: did not affect cell proliferation

## Nc1ccc(-c2ccc3ncc4ccc(=O)n(-c5cccc(C(F)(F)F)c5)c4c3c2)cn1 [Torin2, 9-(6-Aminopyridin-3-yl)-1-(3-(trifluoromethyl)phenyl) benzo [h][1, 6] naphthyridin-2 (1 H)-one, reference compound]
[5]
  NFAT-controlled luciferase activity: did not promote NFAT-activity
[13]
  potency towards mTOR compared to AC27: 40 times
